From patent US20170088520A1, “DEUBIQUITINASE INHIBITORS” (PharmAkea, Inc., priority 2014, published 2017) come the findings set out here.

Each structure is given as a SMILES string. Where only a bound is given, the exact number is not on record here.

What all share (assay type): cell-based
In assay [1] the target is T1, DUB activity in cells (NCI-H929, Z138, MM.1S, A375) (Homo sapiens, UniProt Q93008).
T1 construct: endogenous in cells; host or cells: NCI-H929, Z138, MM.1S, A375
Kind of assay: HA-Ubiquitin-Vinylsulfone (HA-Ub-VS) cell labeling assay. The note with it: compound tested at 5 μM; HA-Ub-VS labeling of USP9x in cells. The method, then:
Example B-1: HA-Ubiqutin-Vinylsulfone (HA-Ub-VS) Cell Labeling
Inhibitition of DUB activity is measured in cells (NCI-H929, Z138, MM.1S, A375) using a hemaglutinin-ubiquitin-vinylsulfone (HA-Ub-VS) labeling assay. Briefly, 1-2×10^6 cells are plated in 12-well plates in 1 ml complete growth media and 250 μl of test compound in 0.5% dimethylsulfoxide (or DMSO control) is added to each well. Plates are incubated at 37° C., 5% CO2 for 2-6 hours before cells are harvested into eppendorf tubes, washed once in PBS and resuspended in 100 μl cold lysis buffer (50 mM Tris pH 8, 150 mM NaCl, 0.5% NP-40, 2 mM phenylmethylsulfonyl fluoride and complete protease inhibitor tablet). Resupended cells are frozen on dry ice, then thawed and incubated on ice for 15 minutes. Tubes are centrifuged for 10 minutes at 14,000 rpm at 4° C. and the cleared supernatants transferred to clean tubes. […] The samples are incubated 15-60 min at 37° C. before the addition of SDS gel loading buffer. Proteins are separated by SDS-PAGE, transferred to nitrocellulose and the blot probed with anti-HA antibody and anti-β-actin antibodies. The HA and β-actin antibodies are detected using secondary antibodies coupled to IRdye 800 or IRdye 680 and visualized and quantitated using the LiCor Odyssey machine.
(§1) The following compounds were tested in the above assays at 5 μM: […]

For assay [2], the system named is Mcl-1 expression in cells (NCI-H929, Z138, MM.1S, A-375). Put plainly: Analysis of Mcl-1 expression by Western blotting. The note with it: compound tested at 5 μM; Western blot. The method, then: (§2) Example B-2: Analysis of Md-1 Expression and PARP Cleavage
(§3) The ability of test compounds to decrease expression of the tumor promoting protein, Mcl-1, and to induce the inactivation/cleavage of the PARP protein is evaluated in cells (NCI-H929, Z138, MM.1S, A-375) by Western blotting. Cells are plated and treated as described in the HA-Ub-VS cell labeling assay (see above). A portion of the cleared lysate (15-50 μl) is run on an SDS-polyacrylamide gel to separate proteins and then transferred to nitrocellulose. After transfer to nitrocellulose, the proteins are detected by probing the blot with anti-Mcl-1 and anti-PARP antibodies followed by secondary antibodies coupled to IRdye 800 and IRdye 680 and visualization and quantitation using a LiCor Odyssey machine. Activity of the test compound is identified as a significant decrease in Mcl-1 expression relative to the vehicle treated cells and to the appearance of a cleaved fragment of PARP relative to the vehicle-treated cells.
as §1
Background: A western blot detects proteins with antibodies after separation by electrophoresis.

Assay [3] relates to PARP cleavage in cells (NCI-H929, Z138, MM.1S, A-375). Kind of assay: Analysis of PARP cleavage by Western blotting. The conditions noted are these: compound tested at 5 μM; Western blot. Here is the method: as §2, §3, §1

T1 sequence (Q93008 whole entry): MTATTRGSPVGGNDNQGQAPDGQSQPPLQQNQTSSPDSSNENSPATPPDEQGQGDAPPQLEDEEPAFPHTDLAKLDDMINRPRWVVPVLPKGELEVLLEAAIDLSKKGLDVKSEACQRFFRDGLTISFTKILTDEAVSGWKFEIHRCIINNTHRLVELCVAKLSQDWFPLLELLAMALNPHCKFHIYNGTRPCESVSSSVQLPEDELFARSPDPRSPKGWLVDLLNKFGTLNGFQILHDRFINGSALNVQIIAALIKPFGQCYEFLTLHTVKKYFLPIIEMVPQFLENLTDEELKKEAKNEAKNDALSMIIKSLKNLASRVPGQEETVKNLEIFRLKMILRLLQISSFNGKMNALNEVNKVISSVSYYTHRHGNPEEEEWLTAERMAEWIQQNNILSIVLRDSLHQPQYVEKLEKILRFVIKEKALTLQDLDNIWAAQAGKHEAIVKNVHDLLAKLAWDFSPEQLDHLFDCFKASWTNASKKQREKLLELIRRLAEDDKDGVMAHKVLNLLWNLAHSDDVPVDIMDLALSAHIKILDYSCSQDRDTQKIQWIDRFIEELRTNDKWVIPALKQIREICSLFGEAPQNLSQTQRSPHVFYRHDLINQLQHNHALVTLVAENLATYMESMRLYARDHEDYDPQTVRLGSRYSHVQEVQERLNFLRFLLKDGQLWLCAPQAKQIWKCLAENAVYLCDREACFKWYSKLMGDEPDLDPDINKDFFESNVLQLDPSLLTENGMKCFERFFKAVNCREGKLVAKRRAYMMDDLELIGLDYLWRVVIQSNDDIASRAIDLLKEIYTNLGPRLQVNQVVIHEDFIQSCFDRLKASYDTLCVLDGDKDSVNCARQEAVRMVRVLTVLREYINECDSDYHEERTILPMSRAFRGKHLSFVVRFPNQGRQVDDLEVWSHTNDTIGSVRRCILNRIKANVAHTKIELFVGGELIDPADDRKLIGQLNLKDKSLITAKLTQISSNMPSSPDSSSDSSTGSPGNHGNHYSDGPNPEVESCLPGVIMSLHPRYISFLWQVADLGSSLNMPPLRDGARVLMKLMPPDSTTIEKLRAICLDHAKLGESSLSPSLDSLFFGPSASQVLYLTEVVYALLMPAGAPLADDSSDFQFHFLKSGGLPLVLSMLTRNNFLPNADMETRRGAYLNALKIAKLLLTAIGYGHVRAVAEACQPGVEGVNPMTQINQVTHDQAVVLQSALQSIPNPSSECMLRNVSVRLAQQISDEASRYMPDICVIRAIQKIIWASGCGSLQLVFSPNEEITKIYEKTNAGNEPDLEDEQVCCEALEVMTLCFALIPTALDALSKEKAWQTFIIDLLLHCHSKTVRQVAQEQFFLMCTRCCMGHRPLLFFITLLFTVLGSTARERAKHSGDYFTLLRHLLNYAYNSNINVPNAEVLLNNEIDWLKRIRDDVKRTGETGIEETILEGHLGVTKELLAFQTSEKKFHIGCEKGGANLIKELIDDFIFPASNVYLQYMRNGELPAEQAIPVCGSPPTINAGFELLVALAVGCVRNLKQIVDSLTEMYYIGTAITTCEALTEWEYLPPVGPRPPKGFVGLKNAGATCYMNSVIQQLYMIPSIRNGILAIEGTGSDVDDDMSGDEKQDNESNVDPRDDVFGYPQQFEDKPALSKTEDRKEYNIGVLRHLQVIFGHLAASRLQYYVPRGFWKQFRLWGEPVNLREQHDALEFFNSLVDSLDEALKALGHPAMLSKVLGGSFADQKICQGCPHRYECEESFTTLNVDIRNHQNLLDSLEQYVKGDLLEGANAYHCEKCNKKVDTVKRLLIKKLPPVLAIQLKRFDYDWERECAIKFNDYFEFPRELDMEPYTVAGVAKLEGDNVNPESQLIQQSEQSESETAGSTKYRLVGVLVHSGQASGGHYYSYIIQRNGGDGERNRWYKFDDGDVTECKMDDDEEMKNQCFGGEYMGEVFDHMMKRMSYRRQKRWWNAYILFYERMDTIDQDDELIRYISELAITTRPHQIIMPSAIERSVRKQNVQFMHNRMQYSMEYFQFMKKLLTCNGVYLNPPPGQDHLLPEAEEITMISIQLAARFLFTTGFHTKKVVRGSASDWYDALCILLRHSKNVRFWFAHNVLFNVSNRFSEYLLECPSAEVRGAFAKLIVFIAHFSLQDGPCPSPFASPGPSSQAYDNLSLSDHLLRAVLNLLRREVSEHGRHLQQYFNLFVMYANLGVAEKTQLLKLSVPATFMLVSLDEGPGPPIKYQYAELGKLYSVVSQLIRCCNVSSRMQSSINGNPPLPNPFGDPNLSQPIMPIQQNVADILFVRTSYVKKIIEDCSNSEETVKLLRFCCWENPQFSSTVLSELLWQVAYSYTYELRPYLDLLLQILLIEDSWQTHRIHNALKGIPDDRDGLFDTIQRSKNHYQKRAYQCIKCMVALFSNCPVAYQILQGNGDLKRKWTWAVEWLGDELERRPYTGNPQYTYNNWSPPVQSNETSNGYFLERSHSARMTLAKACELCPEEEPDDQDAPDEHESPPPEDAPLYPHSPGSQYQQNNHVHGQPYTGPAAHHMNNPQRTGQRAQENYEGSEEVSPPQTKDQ

For `N#C/C(=C\c1cccc(-c2ccc(OCC(=O)O)cc2)n1)C(=O)NC1(c2ccccc2)CCCC1` [Compound 36], the inhibition at 5 µM in assay [1] and in assay [2] was less than 25% throughout. In assay [3], the “PARP cleavage % Inhibition” value is “D (D is <25% inhibition)”.

Consider `COC(=O)c1ccc(-c2ccc(C3(NC(=O)/C(C#N)=C/c4ncc(Br)cc4Br)CCCC3)cc2)cn1` [Compound 37, (E)-methyl 5-(4-(1-(2-cyano-3-(3,5-dibromopyridin-2-yl)acrylamido)cyclopentyl)phenyl)picolinate], for which the inhibition at 5 µM in assay [1] and in assay [2] was 50 to 75% throughout. Besides, the “PARP cleavage % Inhibition” value in assay [3] is recorded as “B (B is 50% to 75% inhibition)”.

Regarding `COC(=O)c1cccc(-c2ccc(C3(NC(=O)/C(C#N)=C/c4ncc(Br)cc4Br)CCCC3)cc2)c1` [Compound 38, (E)-methyl 4′-(1-(2-cyano-3-(3,5-dibromopyridin-2-yl)acrylamido)cyclopentyl)-[1,1′-biphenyl]-3-carboxylate], the inhibition at 5 µM in assay [1] and in assay [2] was 50 to 75% in each case. Also, the “PARP cleavage % Inhibition” value in assay [3] is listed as “A (A is ≧75% inhibition)”.

For the compound `N#C/C(=C\c1ncc(Br)cc1Br)C(=O)NC1(c2ccc(-c3cccnc3)cc2)CCCC1` [Compound 39, (E)-2-cyano-3-(3,5-dibromopyridin-2-yl)-N-(1-(4-(pyridin-3-yl)phenyl)cyclopentyl)acrylamide], the results for the inhibition at 5 µM in assay [1] and in assay [2] were 50 to 75% and no less than 75%, respectively. Also, in assay [3], the “PARP cleavage % Inhibition” value was “A (A is ≧75% inhibition)”.

`N#C/C(=C\c1cccc(-c2ccc(CC(=O)O)cc2)n1)C(=O)NC1(c2ccccc2)CCCC1` [Compound 40]: the inhibition at 5 µM in assay [1] and in assay [2] was less than 25% each time. Moreover, the “PARP cleavage % Inhibition” value in assay [3] was “C (C is 25% to 50% inhibition)”.

On to `COC(=O)c1ccc(C2(NC(=O)/C(C#N)=C/c3cccc(Br)n3)CCCC2)cc1` [Compound 41, (E)-methyl 4-(1-(3-(6-bromopyridin-2-yl)-2-cyanoacrylamido)cyclopentyl)benzoate], for which the inhibition (usually how much of the control response was suppressed) at 5 µM in assay [1] was 50 to 75%; in assay [2], no less than 75%. Also, the “PARP cleavage % Inhibition” value in assay [3] is recorded as “A (A is ≧75% inhibition)”.

As to `COC(=O)/C=C/c1cccc(/C=C(\C#N)C(=O)NC2(c3ccccc3)CCCC2)n1` [Compound 42, (E)-methyl 3-(6-((E)-2-cyano-3-oxo-3-((1-phenylcyclopentyl)amino)prop-1-en-1-yl)pyridin-2-yl)acrylate], the inhibition at 5 µM in assay [1] was 50 to 75%; in assay [2] it was no less than 75%. Also, the “PARP cleavage % Inhibition” value in assay [3] is recorded as “A (A is ≧75% inhibition)”.

For the compound `N#C/C(=C\c1cccc(C#CCn2cccn2)n1)C(=O)NC1(c2ccccc2)CCCC1` [Compound 43, (E)-3-(6-(3-(1H-pyrazol-1-yl)prop-1-yn-1-yl)pyridin-2-yl)-2-cyano-N-(1-phenylcyclopentyl)acrylamide], the inhibition at 5 µM in assay [1] and in assay [2] was no less than 75% each time. Besides, the “PARP cleavage % Inhibition” value in assay [3] is “A (A is ≧75% inhibition)”.

As to `N#C/C(=C\c1cccc(C#CC2(O)CCCC2)n1)C(=O)NC1(c2ccccc2)CCCC1` [Compound 45], the figures for the inhibition at 5 µM in assay [1] and in assay [2] were 50 to 75% and no less than 75%, respectively. Moreover, the “PARP cleavage % Inhibition” value in assay [3] is given as “A (A is ≧75% inhibition)”.

For the compound `N#C/C(=C\c1ncccc1Br)C(=O)NC1(c2ccccc2)CCCC1` [Compound 46, (E)-3-(3-bromopyridin-2-yl)-2-cyano-N-(1-phenylcyclopentyl)acrylamide], the inhibition at 5 µM in assay [1] and in assay [2] was 50 to 75% in each case. Besides, in assay [3], the “PARP cleavage % Inhibition” value is given as “A (A is ≧75% inhibition)”.

With `CCOc1ncc(C(F)(F)F)cc1-c1cccc(/C=C(\C#N)C(=O)NC2(c3ccccc3)CCCC2)n1` [Compound 47, (E)-2-cyano-3-(2′-ethoxy-5′-(trifluoromethyl)-[2,3′-bipyridin]-6-yl)-N-(1-phenylcyclopentyl)acrylamide], the inhibition at 5 µM lay within 25 to 50% in assay [1] and 50 to 75% in assay [2]. Also, in assay [3], the “PARP cleavage % Inhibition” value is reported as “A (A is ≧75% inhibition)”.

With `COC(=O)c1cccc(C2(NC(=O)/C(C#N)=C/c3cccc(Br)n3)CCCC2)c1` [Compound 48, (E)-methyl 3-(1-(3-(6-bromopyridin-2-yl)-2-cyanoacrylamido)cyclopentyl)benzoate], the inhibition at 5 µM was 50 to 75% in assay [1] and less than 25% in assay [2]. Further, the “PARP cleavage % Inhibition” value in assay [3] is on record as “A (A is ≧75% inhibition)”.

For the compound `CC(C)(C)OC(=O)c1cc(-c2cccc(/C=C(\C#N)C(=O)NC3(c4ccccc4)CCCC3)n2)cnc1Cl` [Compound 49], the inhibition at 5 µM in assay [1] and in assay [2] was no less than 75% each time. Moreover, in assay [3], the “PARP cleavage % Inhibition” value is on record as “A (A is ≧75% inhibition)”.

As for `N#C/C(=C\c1ncc(Br)cc1Br)C(=O)NC1(c2ccc(C#CCN3CCOCC3)cc2)CCCC1` [Compound 50, (E)-2-cyano-3-(3,5-dibromopyridin-2-yl)-N-(1-(4-(3-morpholinoprop-1-yn-1-yl)phenyl)cyclopentyl)acrylamide], the inhibition at 5 µM in assay [1] and in assay [2] was no less than 75% in each case. Further, the “PARP cleavage % Inhibition” value in assay [3] is “A (A is ≧75% inhibition)”.

For `N#C/C(=C\c1ncc(Br)cc1Br)C(=O)NC1(c2ccc(-c3ccc(N4CCOCC4)nc3)cc2)CCCC1` [Compound 51, (E)-2-cyano-3-(3,5-dibromopyridin-2-yl)-N-(1-(4-(6-morpholinopyridin-3-yl)phenyl)cyclopentyl)acrylamide], the inhibition at 5 µM in assay [1] and in assay [2] was 25 to 50% in each case. In addition, the “PARP cleavage % Inhibition” value in assay [3] is given as “A (A is ≧75% inhibition)”.

With `CC(C)(C)OC(=O)c1cccc(C2(NC(=O)/C(C#N)=C/c3ncc(Br)cc3Br)CCCC2)c1` [Compound 52, (E)-tert-butyl 3-(1-(2-cyano-3-(3,5-dibromopyridin-2-yl)acrylamido)cyclopentyl)benzoate], the inhibition at 5 µM in assay [1] and in assay [2] was less than 25% each time. For the same compound, the “PARP cleavage % Inhibition” value in assay [3] is recorded as “D (D is <25% inhibition)”.

On to `COc1ncccc1-c1ccc(C2(NC(=O)/C(C#N)=C/c3ncc(Br)cc3Br)CCCC2)cc1` [Compound 53, (E)-2-cyano-3-(3,5-dibromopyridin-2-yl)-N-(1-(4-(2-methoxypyridin-3-yl)phenyl)cyclopentyl)acrylamide], for which the inhibition at 5 µM in assay [1] is less than 25%; in assay [2], 50 to 75%. Moreover, in assay [3], the “PARP cleavage % Inhibition” value is on record as “A (A is ≧75% inhibition)”.

`CCOc1ncc(C(F)(F)F)cc1-c1ccc(C2(NC(=O)/C(C#N)=C/c3ncc(Br)cc3Br)CCCC2)cc1` [Compound 54, (E)-2-cyano-3-(3,5-dibromopyridin-2-yl)-N-(1-(4-(2-ethoxy-5-(trifluoromethyl)pyridin-3-yl)phenyl)cyclopentyl)acrylamide]: the inhibition at 5 µM in assay [1] and in assay [2] was less than 25% throughout. Besides, the “PARP cleavage % Inhibition” value in assay [3] was “C (C is 25% to 50% inhibition)”.

On to `N#C/C(=C\c1cccc(C#CCN2CCOCC2)n1)C(=O)NC1(c2ccccc2)CCCC1` [Compound 55, (E)-2-cyano-3-(6-(3-morpholinoprop-1-yn-1-yl)pyridin-2-yl)-N-(1-phenylcyclopentyl)acrylamide], for which the inhibition at 5 µM in assay [1] was 25 to 50%; in assay [2], less than 25%. The “PARP cleavage % Inhibition” value in assay [3] is “A (A is ≧75% inhibition)”.

In the case of `CC(C)(C)OC(=O)c1cccc(-c2cccc(/C=C(\C#N)C(=O)NC3(c4ccccc4)CCCC3)n2)c1` [Compound 56, (E)-tert-butyl 3-(6-(2-cyano-3-oxo-3-((1-phenylcyclopentyl)amino)prop-1-en-1-yl)pyridin-2-yl)benzoate], the results for the inhibition at 5 µM in assay [1] and in assay [2] were 50 to 75% and no less than 75%, respectively. The “PARP cleavage % Inhibition” value in assay [3] was “A (A is ≧75% inhibition)”.

Turning to `N#C/C(=C\c1cccc(-c2ccc(N3CCOCC3)nc2)n1)C(=O)NC1(c2ccccc2)CCCC1` [Compound 57, (E)-2-cyano-3-(6′-morpholino-[2,3′-bipyridin]-6-yl)-N-(1-phenylcyclopentyl)acrylamide], the inhibition at 5 µM in assay [1] and in assay [2] was no less than 75% each time. Besides, the “PARP cleavage % Inhibition” value in assay [3] is listed as “A (A is ≧75% inhibition)”.
